# Assay results taken from publication PMC8557888, “Intracellular Accumulation of Novel and Clinically Used TB Drugs Potentiates Intracellular Synergy” (Microbiology Spectrum, 2021).
# “And” between values parts separate entries of the source, which are not always exact repeats. Equal values may be shown once. Read-outs that look alike come from different tables or passages of the source.
# Legend:
# [1] = tested on: M. smegmatis-infected THP-1 cells
# M. tuberculosis H37Rv [2] = assay: Intracellular efficacy (CFU plating) in M. tuberculosis-infected THP-1 cells; type: cell-based, Mycobacterium tuberculosis; conditions: M. tuberculosis H37Rv-infected THP-1 cells, 20× MIC, 96-h assay; for decrease in bacterial count from starting count: given as size of decrease; for change in bacterial count compared to starting bacterial count: signed value
# THP-1 cells [3] = conditions: human, 5 μg/ml
# [4] = tested on: M. tuberculosis-infected THP-1 cells; conditions: 20× MIC
# Experimental: An intracellular accumulation ratio, defined as the intracellular compound concentration divided by the extracellular concentration, was used in this study to allow comparison between compounds (Fig. 5B).
# The intracellular accumulation of the combination of PhX1 and WHN296 in the M. tuberculosis-infected THP-1 cell model was evaluated using quantitative LC-MS/MS at time points of 24, 48, 72, and 96 h (n = 3 for each time point). In this experiment, intracellular drug concentrations are reported in ng/ml to allow comparisons to be made with the minimum compound levels required to achieve synergy.
# THP-1 cells were grown in RPMI medium containing 10% FCS at 37°C in 5% CO2. Cells were seeded and differentiated according to the above protocol for 24 h using PMA. M. tuberculosis (H37RvMa) cells were grown to mid-log phase in 7H9 medium. THP-1 cells were infected at an MOI of 5. Following 3 h of infection, wells were washed with RPMI medium to remove extracellular bacteria and dead cells. RPMI medium containing a predetermined concentration of compound was added to each well in triplicate. The solution was allowed to equilibrate for 30 min. In addition, three wells were left without drug treatment (following M. tuberculosis infection) and served as untreated controls, while an additional three wells of THP-1 cells were left uninfected and were used as uninfected controls. Thereafter, at each time point, cells were washed with RPMI medium. This was followed by the addition of EDTA (5 mM), after which 5 min was allowed for the cells to detach. Trypan blue-stained cells were counted using the automated cell counter. The remaining supernatant (150 μl) was added directly to an Eppendorf tube containing chloroform/methanol (3:1, vol/vol) and 1 μg/ml of compound-specific internal standard (deuterated internal standard for known anti-TB compounds and carbamazepine for novel compounds). […] Samples were processed using quantitative LC-MS/MS assays. […] These were then used to construct calibration curves, which were subsequently used to quantitate the amount of analyte in each respective sample.
# M. tuberculosis H37Rv [5] = conditions: cited from earlier work
# in vitro = conditions: human
# [6] = cited from earlier work
# [7] = cited from earlier work; remark: listed apart in the source
# M. smegmatis = type: cell-based, Mycobacterium smegmatis
# M. tuberculosis = assay: Two-dimensional checkerboard synergy assay; type: cell-based, Mycobacterium tuberculosis; conditions: PhX1/WHN296 combination
# [8] = male, C57BL/6, mouse, in vivo, po, 10 mg/kg
# THP-1 cells [9] = assay: Intracellular accumulation in uninfected THP-1 cells (LC-MS/MS); conditions: 5 μg/ml of each compound, 48 h
# [10] = THP-1 cell viability during accumulation experiment (trypan blue); conditions: human
# [11] = PhX1 concentrations in murine plasma, epithelial lining fluid and alveolar macrophages (BAL procedure, LC-MS/MS); conditions: mice; for Kp / AUC / Cmax: male, C57BL/6, mouse, in vivo, 10 mg/kg; for AUC: 24 h
structure (smiles),measurement,setting,value
CCN(CC)c1ccc2nc3c4ccccc4c(=Nc4ccccn4)cc-3oc2c1 [PhX6],intracellular accumulation compared among phenoxazines,[1],only compound accumulating to higher levels
CCCCCCCCCCOc1cc2c(=O)c(C(=O)NCCOCCO)cn(CC)c2cc1OCC [RMB041],decrease in bacterial count from starting count,M. tuberculosis H37Rv [2],0.1 log10CFU/ml
same,Equilibrium level reached (intracellular concentration),THP-1 cells [3]; 48 h,953.5 ± 28.2 ng/mL
same,intracellular accumulation ratio (intracellular/extracellular concentration),[4],0.25
same,MIC90,M. tuberculosis H37Rv [5]; M. tuberculosis H37Rv in vitro,1.61 µM
same,"viability at 48 h, 5 μg/ml",in vitro,97 ± 2.5%
COc1c(N2C[C@@H]3CCCN[C@@H]3C2)c(F)cc2c(=O)c(C(=O)O)cn(C3CC3)c12 [moxifloxacin],decrease in bacterial count from starting count,M. tuberculosis H37Rv [2],approximately 0.5 log10CFU/ml
same,change in bacterial count compared to starting bacterial count,M. tuberculosis H37Rv [2],−0.5 log10CFU/ml
same,Equilibrium level reached (intracellular concentration),THP-1 cells [3]; 48 h,"3,374 ± 48.7 ng/ml"
same,intracellular accumulation ratio (intracellular/extracellular concentration),[4],5.4
same,"viability at 48 h, 5 μg/ml",in vitro,87 ± 2.7%
same,log ratio ELF/plasma,[6],1.5
same,Cmax in epithelial lining fluid,"[7]; human, in vivo",approximately 10 μg/ml
same,plasma Cmax,"[7]; human, in vivo",approximately 4 μg/ml
same,concentration in plasma at the 24-h time point,"[7]; once-off 400 mg oral dose, healthy volunteers",5000 ng/mL
"C[C@H]1COc2c(N3CCN(C)CC3)c(F)cc3c(=O)c(C(=O)O)cn1c23 [Levofloxacin, levofloxacin]",Equilibrium level reached (intracellular concentration),THP-1 cells [3]; 48 h,860 ± 56.5 ng/mL
same,"viability at 48 h, 5 μg/ml",in vitro,95 ± 4.2%
COc1nc2ccc(Br)cc2cc1[C@@H](c1ccccc1)[C@@](O)(CCN(C)C)c1cccc2ccccc12 [bedaquiline],decrease in bacterial count from starting count,M. tuberculosis H37Rv [2],1.5 log10CFU/ml
same,change in bacterial count compared to starting bacterial count,M. tuberculosis H37Rv [2],−1.5 log10CFU/ml
same,time to reach equilibrium level / steady state,THP-1 cells [3],≤ 30 min
same,Equilibrium level reached (intracellular concentration),THP-1 cells [3]; 48 h,"4,410 ± 190.9 ng/ml"
same,equilibrium level (intracellular),THP-1 cells [3]; 48 h,greater than 4 μg/ml
same,intracellular accumulation ratio (intracellular/extracellular concentration),[4],5.5
same,"viability at 48 h, 5 μg/ml",in vitro,93 ± 4.9%
CCN(CC)c1ccc2nc3c4ccccc4/c(=N\c4ccccc4)cc-3oc2c1 [PhX1],change in M. smegmatis-associated green fluorescence,M. smegmatis,no significant change
same,decrease in bacterial count from starting count,M. tuberculosis H37Rv [2],0.8 log10CFU/ml
same,change in bacterial count compared to starting bacterial count,M. tuberculosis H37Rv [2],−0.8 log10CFU/ml
same,minimum value required to produce synergy (2D-synergy level),M. tuberculosis,153.1 ng/mL
same,time plasma concentration above M. tuberculosis MIC90,[8],approximately 6 h
same,intracellular accumulation compared among phenoxazines,[1],significantly higher than those of the majority of the other phenoxazines
same,time to steady state of accumulation,[1]; human,2 h
same,MIC90,M. tuberculosis H37Rv [5]; M. tuberculosis H37Rv in vitro,0.19 µM and 0.194 µM
same,increase in efficacy against in vitro M. tuberculosis over PhX6,M. tuberculosis H37Rv [5]; PhX1 vs PhX6,2 fold
same,MIC90,M. tuberculosis H37Rv [5]; line printed in Fig 2,0.089 µg/mL
same,Equilibrium level reached (intracellular concentration),THP-1 cells [9],"4,750 ± 127.2 ng/ml"
same,"viability at 48 h, 5 μg/ml",[10],92 ± 5.8%
same,Kp,[11]; ELFAUC/plasmaAUC,1.7
same,AUC,"[11]; po, AUC in epithelial lining fluid cells (alveolar macrophages), 10 mg/kg oral, ELF cells",5020 ng·h/mL
same,AUC,"[11]; po, AUC in epithelial lining fluid, 10 mg/kg oral, ELF",2090 ng·h/mL
same,AUC,"[11]; po, AUC in plasma, 10 mg/kg oral, plasma",1170 ng·h/mL
same,Cmax,"[11]; po, Cmax in epithelial lining fluid cells (alveolar macrophages), 10 mg/kg oral, ELF cells",895 ± 23 ng/mL
same,Cmax,"[11]; po, Cmax in epithelial lining fluid, 10 mg/kg oral, ELF",452 ± 22 ng/mL
same,Cmax,"[11]; po, Cmax in plasma, 10 mg/kg oral, plasma",200 ± 75 ng/mL
same,Kp,"[11]; po, ELF AUC relative to plasma, 10 mg/kg oral",~2
same,Kp,"[11]; po, ELF cell AUC relative to plasma, 10 mg/kg oral",~4
same,ELF cell AUC relative to epithelial lining fluid,[11]; 10 mg/kg oral,2 fold
same,time above MIC90 in epithelial lining fluid,"[11]; 10 mg/kg oral, ELF",8 h
same,log ratio of epithelial lining fluid to plasma concentration,[11]; single-point values such as Cmax,0.65
NNC(=O)c1ccncc1 [isoniazid],log ratio ELF/plasma,[6]; in vivo,1
NC(=O)c1cnccn1 [pyrazinamide],log ratio ELF/plasma,[6]; in vivo,3.2
CC(C)=CCC/C(C)=C/CN1CCN([C@@H]2O[C@@H]3O[C@@]4(C)CC[C@H]5[C@H](C)CC[C@@H]([C@H]2C)[C@@]35OO4)CC1 [WHN296],Equilibrium level reached (intracellular concentration),THP-1 cells [3]; 48 h,613.5 ± 19.2 ng/mL
same,MIC90,M. tuberculosis H37Rv [5]; M. tuberculosis H37Rv in vitro,18 µM
same,"viability at 48 h, 5 μg/ml",in vitro,98 ± 1.2%
O=C(NN=C(c1ccccn1)c1ccccn1)c1ccncc1 [DPINH],Equilibrium level reached (intracellular concentration),THP-1 cells [9],"1,280 ± 113.1 ng/ml"
CC(=O)NC[C@H]1CN(c2ccc(N3CCOCC3)c(F)c2)C(=O)O1 [linezolid],time to reach equilibrium level / steady state,THP-1 cells [3],≤ 15 min
same,Equilibrium level reached (intracellular concentration),THP-1 cells [3]; 48 h,770 ± 14.1 ng/mL
same,"viability at 48 h, 5 μg/ml",in vitro,92 ± 3.1%
same,log ratio ELF/plasma,[6],0.7
CO[C@H]1/C=C/O[C@@]2(C)Oc3c(C)c(O)c4c(O)c(c(/C=N/N5CCN(C)CC5)c(O)c4c3C2=O)NC(=O)/C(C)=C\C=C\[C@H](C)[C@H](O)[C@@H](C)[C@@H](O)[C@@H](C)[C@H](OC(C)=O)[C@@H]1C [rifampin],decrease in bacterial count from starting count,M. tuberculosis H37Rv [2],approximately 1.5 log10CFU/ml
same,change in bacterial count compared to starting bacterial count,M. tuberculosis H37Rv [2],−1.5 log10CFU/ml
same,Equilibrium level reached (intracellular concentration),THP-1 cells [3]; 48 h,"3,050 ± 62.9 ng/ml"
same,"viability at 48 h, 5 μg/ml",in vitro,89 ± 2.4%
same,log ratio ELF/plasma,[6]; in vivo,0.7
same,maximum concentration in epithelial lining fluid,"[7]; human, in vivo",approximately 2 μg/ml
CCc1cc(C(N)=S)ccn1 [ethionamide],log ratio ELF/plasma,[6]; in vivo,2.8
